{
  "source": "paper PMC5201249",
  "about": "“Agrobacterium tumefaciens estC, Encoding an Enzyme Containing Esterase Activity, Is Regulated by EstR, a Regulator in the MarR Family” (PLoS ONE, 2016)",
  "target": "T1, EstR (Atu5211) (Agrobacterium fabrum, UniProt A9CLK2)",
  "T1 construct": "full length, non-tagged, pETBlue-2, E. coli BL21(DE3), heparin and Q-Sepharose columns",
  "T1 sequence (A9CLK2 1-155)": "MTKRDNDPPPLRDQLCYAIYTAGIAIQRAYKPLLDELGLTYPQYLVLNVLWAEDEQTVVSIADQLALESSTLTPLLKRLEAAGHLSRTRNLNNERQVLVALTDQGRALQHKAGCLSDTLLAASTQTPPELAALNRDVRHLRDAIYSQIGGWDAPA",
  "assay": "gel mobility shift: loss of EstR binding to […]-labelled 314-bp estR-estC promoter DNA",
  "conditions": "1 mM CHP; pH 7.0, 25 C; covalent (oxidation of sensing Cys16)",
  "data": [
    {"smiles": "CC(C)(OO)c1ccccc1", "note": "[CHP, cumene hydroperoxide]", "values": [
      {"measurement": "gel mobility shift: loss of EstR binding to 32P-labelled 314-bp estR-estC promot", "value": "prior CHP treatment of EstR prevented the repressor from binding to the promoter fragment"}
    ]}
  ]
}
